Structures can show the parent of a compound that is named as a salt.

The first assay deals with Acinetobacter baumannii ATCC17961. The experiment in a line: Antimicrobial susceptibility testing: 90% growth inhibitory concentration (IC90) determination in Iso-Sensitest broth, OD600 growth. The class given is cell-based. The following applies: Acinetobacter baumannii, ATCC17961, 16 h, read-out: A. baumannii ATCC 17961 IC90 (uM), strain ATCC 17961, OD600 growth over 16 h. The method in brief: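 Serial twofold dilution, 10 points, e.g. 50–0.097 μM final; ~5×10^(5) CFU/ml; 35±2° C, 16 h; kinetic OD600 every 20 min; IC90 from log-phase inhibition.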
Regarding `C[C@@]1(O)CN[C@H](C(=O)N2CCN(C(=O)c3ccc(Nc4nccn5c(-c6c[nH]nc6C(F)(F)F)cnc45)cc3Cl)CC2)C1` [Example 443, [2-chloro-4-[[3-[3-(trifluoromethyl)-1H-pyrazol-4-yl]imidazo[1,2-a]pyrazin-8-yl]amino]phenyl]-[4-[(2S,4S)-4-hydroxy-4-methylpyrrolidine-2-carbonyl]piperazin-1-yl]methanone formate], the IC90 was 0.81 µM.

Turning to `C[C@H](NC(=O)c1ccc(Nc2nccn3c(-c4c[nH]nc4C(F)(F)F)cnc23)cc1Cl)C(=O)N1CCC(N)CC1` [Example 126, N-[(2S)-1-(4-aminopiperidin-1-yl)-1-oxopropan-2-yl]-2-chloro-4-[[3-[3-(trifluoromethyl)-1H-pyrazol-4-yl]imidazo[1,2-a]pyrazin-8-yl]amino]benzamide formate], the concentration for an effect of 90% (IC90) was 4.15 µM. The same measure, in the same setting: next, `NCCCNC(=O)N1CCN(C(=O)c2ccc(Nc3nccn4c(-c5c[nH]nc5C(F)(F)F)cnc34)cc2Cl)CC1` [Example 390, N-(3-aminopropyl)-4-[2-chloro-4-[[3-[3-(trifluoromethyl)-1H-pyrazol-4-yl]imidazo[1,2-a]pyrazin-8-yl]amino]benzoyl]piperazine-1-carboxamide formate]: 0.177 µM. Take `CCc1cc(Nc2nccn3c(-c4cn(Cc5cccnc5)nc4C(F)(F)F)cnc23)ccc1C(=O)NCCCNCCCCNCCCN` [Example 7, N-[3-[4-(3-aminopropylamino)butylamino]propyl]-2-ethyl-4-[[3-[1-(pyridin-3-ylmethyl)-3-(trifluoromethyl)pyrazol-4-yl]imidazo[1,2-a]pyrazin-8-yl]amino]benzamide hydrochloride]: the concentration for an effect of 90% (IC90) was determined as 0.782 µM. Consider `C[C@@H](NC(=O)c1ccc(Nc2nccn3c(-c4c[nH]nc4C(F)(F)F)cnc23)cc1Cl)C(=O)N1CC[C@H](N)C1` [Example 94, N-[(2R)-1-[(3S)-3-aminopyrrolidin-1-yl]-1-oxopropan-2-yl]-2-chloro-4-[[3-[3-(trifluoromethyl)-1H-pyrazol-4-yl]imidazo[1,2-a]pyrazin-8-yl]amino]benzamide formate], for which the IC90 was 1.24 µM. `CCc1cc(Nc2nccn3c(-c4cn(Cc5nccn5C)nc4C(F)(F)F)cnc23)ccc1C(=O)NCCCNCCCCNCCCN` [Example 84, N-[3-[4-(3-aminopropylamino)butylamino]propyl]-2-ethyl-4-[[3-[1-[(1-methylimidazol-2-yl)methyl]-3-(trifluoromethyl)pyrazol-4-yl]imidazo[1,2-a]pyrazin-8-yl]amino]benzamide hydrochloride]: the 90% effect concentration (IC90) amounted to 2.98 µM. Regarding `CCc1cc(Nc2nccn3c(-c4cn(CCO)nc4C(F)(F)F)cnc23)ccc1C(=O)NCCOCCN` [Example 305, N-[2-(2-aminoethoxy)ethyl]-2-ethyl-4-[[3-[1-(2-hydroxyethyl)-3-(trifluoromethyl)pyrazol-4-yl]imidazo[1,2-a]pyrazin-8-yl]amino]benzamide formate], the IC90 came to 0.406 µM. Regarding `CCc1cc(Nc2nccn3c(-c4cn(CC(F)F)nc4C(F)(F)F)cnc23)ccc1C(=O)NCCCNC(=O)[C@H](C)N` [Example 628, (S)-N-(3-(2-aminopropanamido)propyl)-4-((3-(1-(2,2-difluoroethyl)-3-(trifluoromethyl)-1H-pyrazol-4-yl)imidazo[1,2-a]pyrazin-8-yl)amino)-2-ethylbenzamide formate], the concentration for an effect of 90% (IC90) is 0.195 µM. Regarding `O=C(c1ccc(Nc2nccn3c(-c4cn(Cc5cccnn5)nc4C(F)(F)F)cnc23)cc1Cl)N1CCNCC1` [Example 135, [2-chloro-4-[[3-[1-(pyridazin-3-ylmethyl)-3-(trifluoromethyl)pyrazol-4-yl]imidazo[1,2-a]pyrazin-8-yl]amino]phenyl]-piperazin-1-ylmethanone formate], the 90% effect concentration (IC90) worked out at 0.933 µM.

Still in this assay, the particulars now being: Acinetobacter baumannii, ATCC17961, 16 h, strain ATCC 17961, OD600 growth over 16 h, read-out: A. baumannii ATCC 17961 IC90.
Consider `CCc1cc(Nc2nccn3c(-c4c[nH]nc4C(F)(F)F)cnc23)ccc1C(=O)NCCOC[C@H](C)N` [Example 203, N-[2-[(2S)-2-aminopropoxy]ethyl]-2-ethyl-4-[[3-[3-(trifluoromethyl)-1H-pyrazol-4-yl]imidazo[1,2-a]pyrazin-8-yl]amino]benzamide], for which the concentration for an effect of 90% (IC90) turned out to be 0.102 µM. On to `O=C(c1ccc(Nc2nccn3c(-c4c[nH]nc4C(F)(F)F)cnc23)cc1Cl)N1CCN(C(=O)[C@H]2CNC[C@H](O)C2)CC1` (racemic) [Example 353, [2-chloro-4-[[3-[3-(trifluoromethyl)-1H-pyrazol-4-yl]imidazo[1,2-a]pyrazin-8-yl]amino]phenyl]-[4-[rac-(3R,5R)-5-hydroxypiperidine-3-carbonyl]piperazin-1-yl]methanone], for which the IC90 was found to be 0.241 µM. As to `CCc1cc(Nc2nccn3c(-c4c[nH]nc4C(F)(F)F)cnc23)ccc1C(=O)N[C@H](C)CN` [Example 145, N-[(2R)-1-aminopropan-2-yl]-2-ethyl-4-[[3-[3-(trifluoromethyl)-1H-pyrazol-4-yl]imidazo[1,2-a]pyrazin-8-yl]amino]benzamide trifluoroacetate], the IC90 came out at 1.9 µM. Still for that read-out and setting: next, `NC1CCN(C(=O)c2ccc(Nc3nccn4c(-c5c[nH]nc5C(F)(F)F)cnc34)cc2Cl)CC1` [Example 318, (4-aminopiperidin-1-yl)-[2-chloro-4-[[3-[3-(trifluoromethyl)-1H-pyrazol-4-yl]imidazo[1,2-a]pyrazin-8-yl]amino]phenyl]methanone]: 0.411 µM; `CCc1cc(Nc2nccn3c(-c4cn(CC#N)nc4C(F)(F)F)cnc23)ccc1C(=O)NCC(=O)NCC1CNC1` [Example 521, N-[2-(azetidin-3-ylmethylamino)-2-oxo-ethyl]-4-[[3-[1-(cyanomethyl)-3-(trifluoromethyl)pyrazol-4-yl]imidazo[1,2-a]pyrazin-8-yl]amino]-2-ethyl-benzamide formate]: 0.38 µM.

For `N#CCn1cc(-c2cnc3c(Nc4ccc(C(=O)N5CCN(C(=O)CN)CC5)c(F)c4)nccn23)c(C(F)(F)F)n1` [Example 813, 2-(4-(8-((3-fluoro-4-(4-glycylpiperazine-1-carbonyl)phenyl)amino)imidazo [1,2-a]pyrazin-3-yl)-3-(trifluoromethyl)-1H-pyrazol-1-yl)acetonitrile hydrochloride], the IC90 worked out at 0.21 µM.

`CCc1cc(Nc2nccn3c(-c4cn(CC#N)nc4C(F)(F)F)cnc23)ccc1C(=O)NCCNC(=O)C1CCNCC1` [Example 486, N-(2-(4-((3-(1-(cyanomethyl)-3-(trifluoromethyl)-1H-pyrazol-4-yl)imidazo[1,2-a]pyrazin-8-yl)amino)-2-ethylbenzamido)ethyl)piperidine-4-carboxamide formate]: the IC90 stood at 0.208 µM. As for `CCc1cc(Nc2nccn3c(-c4c[nH]nc4C(F)(F)F)cnc23)ccc1C(=O)NCCCNC(=O)CNC(=O)C(F)(F)F` [Example 708, 2-ethyl-N-(3-(2-(2,2,2-trifluoroacetamido)acetamido)propyl)-4-((3-(3-(trifluoromethyl)-1H-pyrazol-4-yl)imidazo [1,2-a]pyrazin-8-yl)amino)benzamide], the IC90 was found to be 0.397 µM. Still for that read-out and setting: next, `CCc1cc(Nc2nccn3c(-c4cn(CC#N)nc4C(F)(F)F)cnc23)ccc1C(=O)NCC(=O)N1CCNCC1` [Example 499, 4-[[3-[1-(cyanomethyl)-3-(trifluoromethyl)pyrazol-4-yl]imidazo[1,2-a]pyrazin-8-yl]amino]-2-ethyl-N-(2-oxo-2-piperazin-1-yl-ethyl)benzamide formate]: 0.218 µM. As for `C#CCn1cc(-c2cnc3c(Nc4ccc(C(=O)N5CCN(C(=O)[C@H](N)C(C)C)CC5)c(CC)c4)nccn23)c(C(F)F)n1` [Example 773, (R)-2-amino-1-(4-(4-((3-(3-(difluoromethyl)-1-(prop-2-yn-1-yl)-1H-pyrazol-4-yl)imidazo[1,2-a]pyrazin-8-yl)amino)-2-ethylbenzoyl)piperazin-1-yl)-3-methylbutan-1-one], the IC90 was 0.978 µM.

Staying with this assay, now noted: strain ATCC 17961, OD600 growth over 16 h, read-out: A. baumannii ATCC 17961 IC90.
On to `N[C@H]1CC[C@@H](NC(=O)N2CCN(C(=O)c3ccc(Nc4nccn5c(-c6c[nH]nc6C(F)(F)F)cnc45)cc3Cl)CC2)C1` [Example 238, N-[(1R,3S)-3-aminocyclopentyl]-4-[2-chloro-4-[[3-[3-(trifluoromethyl)-1H-pyrazol-4-yl]imidazo[1,2-a]pyrazin-8-yl]amino]benzoyl] piperazine-1-carboxamide formate], for which the IC90 came to 0.2 µM. As to `C#CCNCCCNC(=O)c1c(C)cc(Nc2nccn3c(-c4cn(CC#N)nc4C(F)(F)F)cnc23)cc1F` [Example 76, 4-[[3-[1-(cyanomethyl)-3-(trifluoromethyl)pyrazol-4-yl]imidazo[1,2-a]pyrazin-8-yl]amino]-2-fluoro-6-methyl-N-[3-(prop-2-ynylamino)propyl] benzamide], the concentration for an effect of 90% (IC90) was determined as 2.09 µM. Consider `C#CCNCCCNC(=O)c1c(C)cc(Nc2nccn3c(-c4cn(CC(F)F)nc4C(F)(F)F)cnc23)cc1F` [Example 68, 4-[[3-[1-(2,2-difluoroethyl)-3-(trifluoromethyl)pyrazol-4-yl]imidazo[1,2-a]pyrazin-8-yl]amino]-2-fluoro-6-methyl-N-[3-(prop-2-ynylamino)propyl] benzamide], for which the 90% effect concentration (IC90) is 0.43 µM. On the same count and under the same terms, the same measure for `Cc1cc(Nc2nccn3c(-c4c[nH]nc4C(F)(F)F)cnc23)ccc1C(=O)N1CCN(C(=O)N[C@@H]2CNC[C@H]2O)CC1` [Example 457, formic acid, N-[(3R,4R)-4-hydroxypyrrolidin-3-yl]-4-[2-methyl-4-[[3-[3-(trifluoromethyl)-1H-pyrazol-4-yl]imidazo[1,2-a]pyrazin-8-yl]amino]benzoyl]piperazine-1-carboxamide]: 0.442 µM; for `NC1CC(NC(=O)c2ccc(Nc3nccn4c(-c5c[nH]nc5C(F)(F)F)cnc34)cc2Cl)C1` (stereo not drawn) [Example 384, N-(3-aminocyclobutyl)-2-chloro-4-[[3-[3-(trifluoromethyl)-1H-pyrazol-4-yl]imidazo[1,2-a]pyrazin-8-yl]amino]benzamide]: 0.833 µM.

What is called IC90 is the concentration needed for an effect of 90%.

For the origin of these results see US20230203043A1, “NOVEL IMIDAZOPYRAZINE DERIVATIVES” (Hoffmann-La Roche Inc., priority 2020, published 2023).
